{"source": "patent US6069130A", "about": "“Ketoheterocyclic inhibitors of factor Xa” (COR Therapeutics, Inc., priority 1995, dated 2000)", "key": {"[1]": {"test_system": "thrombus growth in abdominal vena cava", "assay": "rabbit deep vein thrombosis model, inhibition of thrombus growth", "assay_type": "in vivo", "details": "for of Thrombosis (inhibition of thrombus growth): rabbit", "text": "(§1) Rabbits were anesthetized with I.M. injections of Ketamine, Xylazine, and Acepromazine cocktail. A standardized protocol consisted of insertion of a thrombogenic cotton thread and copper wire apparatus into the abdominal vena cava of the anesthetized rabbit. A non-occlusive thrombus was allowed to develop in the central venous circulation and inhibition of thrombus growth was used as a measure of the antithrombotic activity of the studied compounds. Test agents or control saline were administered through a marginal ear vein catheter. A femoral vein catheter was used for blood sampling prior to and during steady state infusion of test compound. Initiation of thrombus formation begins immediately after advancement of the cotton thread apparatus into the central venous circulation. Test compounds were administered from time=30 min to time=150 min at which the experiment was terminated. The rabbits were euthanized and the thromidus excised by surgical dissection and characterized by weight and histology. Blood samples were analyzed for changes in hematological and coagulation parameters."}, "[2]": {"assay": "coagulation parameters (aPTT, PT) in rabbit venous thrombosis model", "assay_type": "in vivo", "details": "for fold increase over baseline PT / fold increase over baseline aPTT: rabbit, steady state, mean ± SD", "text": "as §1"}, "[3]": {"details": "rabbit, in vivo", "text": "as §1"}, "[4]": {"details": "highest dose (100 μg/kg+2.57 μg/kg/min)"}}}
{"smiles": "NC(N)=NCCCC(N)C(=O)NCC(=O)NC(CCCN=C(N)N)C(=O)c1nccs1", "note": "[H-D-Arg-Gly-Arg-thiazole, (D)-Arg-Gly-Arg-thiazole]", "values": [{"measurement": "antithrombotic efficacy in the rabbit venous thrombosis model (in words)", "setting": "[1]; at the higher doses evaluated", "value": "demonstrated antithrombotic efficacy at the higher doses evaluated"}, {"measurement": "of Thrombosis (inhibition of thrombus growth)", "setting": "[1]; i.v. 50 μg/kg + 1.28 μg/kg/min", "value": -7.84}, {"measurement": "of Thrombosis (inhibition of thrombus growth)", "setting": "[1]; i.v. 75 μg/kg + 1.93 μg/kg/min", "value": 42.955}, {"measurement": "of Thrombosis (inhibition of thrombus growth)", "setting": "[1]; i.v. 100 μg/kg + 2.57 μg/kg/min", "value": 117.72}, {"measurement": "effect on PT prolongation (in words)", "setting": "[2]; [4]", "value": "no significant effect"}, {"measurement": "effect on aPTT prolongation (in words)", "setting": "[2]; [4]", "value": "no significant effect"}, {"measurement": "fold increase over baseline PT", "setting": "[2]; 50 μg/kg + 1.28 μg/kg/min", "value": "1.00 ± 0.00", "unit": "fold"}, {"measurement": "fold increase over baseline aPTT", "setting": "[2]; 50 μg/kg + 1.28 μg/kg/min", "value": "1.00 ± 0.03", "unit": "fold"}, {"measurement": "fold increase over baseline PT", "setting": "[2]; 75 μg/kg + 1.93 μg/kg/min", "value": "1.00 ± 0.00", "unit": "fold"}, {"measurement": "fold increase over baseline aPTT", "setting": "[2]; 75 μg/kg + 1.93 μg/kg/min", "value": "1.02 ± 0.03", "unit": "fold"}, {"measurement": "fold increase over baseline PT", "setting": "[2]; 100 μg/kg + 2.57 μg/kg/min", "value": "0.83 ± 0.00", "unit": "fold"}, {"measurement": "fold increase over baseline aPTT", "setting": "[2]; 100 μg/kg + 2.57 μg/kg/min", "value": "1.08 ± 0.02", "unit": "fold"}, {"measurement": "effects on hematological parameters as compared to saline controls (in words)", "setting": "[3]", "value": "no significant effects"}]}
